Values quoted from earlier work in US20030162721A1, “PHARMACEUTICAL COMPOSITION CONTAINING PEPTICHEMIO” (priority 1997, published 2003).

Test system: RPMI 8322 melanoma cells

L-prolyl-m-sarcolysyl-L-p-fluorophenylalanine [PSF]
times more toxic than m-sarcolysine (relative to m-sarcolysine): 28 times
times more toxic than melphalan (relative to melphalan): 35 times
